From PMC11037862 (ACS chemical neuroscience, 2023) come the findings set out here.

For the test, the target named is S1PR1 (sphingosine-1-phosphate receptor 1) (Homo sapiens, UniProt P21453). Put plainly: saturation autoradiography with the tritiated ligand on human brain sections.
Sequence of S1PR1 (sphingosine-1-phosphate receptor 1) (P21453 whole entry): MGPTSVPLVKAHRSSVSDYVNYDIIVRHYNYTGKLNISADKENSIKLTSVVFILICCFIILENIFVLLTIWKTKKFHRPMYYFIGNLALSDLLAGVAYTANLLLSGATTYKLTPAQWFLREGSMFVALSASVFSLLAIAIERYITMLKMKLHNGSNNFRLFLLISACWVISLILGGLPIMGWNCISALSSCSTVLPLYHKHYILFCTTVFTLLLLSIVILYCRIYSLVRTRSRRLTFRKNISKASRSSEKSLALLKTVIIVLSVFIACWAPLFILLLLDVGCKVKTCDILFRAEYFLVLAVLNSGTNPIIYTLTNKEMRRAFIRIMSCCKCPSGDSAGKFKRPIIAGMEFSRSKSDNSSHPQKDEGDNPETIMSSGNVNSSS

The term Kd denotes the constant that tells how readily two partners part at equilibrium. Low values mean a tighter complex, high ones a looser complex. [^3H]CS1P1 gave a Kd of 2.7 ± 0.2 nM.
